Test results published in paper PMC9865645, “The Impact of N^ε-Acryloyllysine Piperazides on the Conformational Dynamics of Transglutaminase 2” (International Journal of Molecular Sciences, 2023).

Biological target: T1, self-produced hTGase 2 (Homo sapiens, UniProt P21980)
T1 construct: thrombin cleavage site (N); made in house; host or cells: E. coli BL21(DE3)
T1 sequence (P21980 1-687): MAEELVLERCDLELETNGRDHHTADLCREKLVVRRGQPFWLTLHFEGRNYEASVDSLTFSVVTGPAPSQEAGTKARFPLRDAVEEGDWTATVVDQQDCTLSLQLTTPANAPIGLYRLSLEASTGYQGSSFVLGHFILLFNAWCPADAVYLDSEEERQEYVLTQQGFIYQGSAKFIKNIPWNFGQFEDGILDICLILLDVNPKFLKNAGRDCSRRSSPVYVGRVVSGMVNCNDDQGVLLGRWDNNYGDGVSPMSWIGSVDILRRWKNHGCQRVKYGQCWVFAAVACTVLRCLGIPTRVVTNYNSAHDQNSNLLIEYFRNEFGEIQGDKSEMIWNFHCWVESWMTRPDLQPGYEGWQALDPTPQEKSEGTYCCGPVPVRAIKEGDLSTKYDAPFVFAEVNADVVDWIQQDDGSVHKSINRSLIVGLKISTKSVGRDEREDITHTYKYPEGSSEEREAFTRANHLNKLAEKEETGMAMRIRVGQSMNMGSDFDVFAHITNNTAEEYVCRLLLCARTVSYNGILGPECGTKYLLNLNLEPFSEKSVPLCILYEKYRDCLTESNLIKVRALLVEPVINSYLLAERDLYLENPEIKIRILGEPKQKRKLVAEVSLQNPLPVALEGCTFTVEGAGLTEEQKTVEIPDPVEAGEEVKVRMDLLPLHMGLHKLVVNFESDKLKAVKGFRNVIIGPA
Experiment: native (GTP-)PAGE: conformational species of hTGase 2
Conditions: pre-incubation with 500 µM GTPγS
Description: Figure 7 Influence of inhibitors 1–3 on the activity and conformation of hTGase 2 in the absence and presence of Ca^2+ or/and GTPγS. Native (GTP-)PAGE was performed on 7% separating gels. The gel and the running buffer contained either no GTP (A) or 50 µM GTP (B). Samples of 8.23 µM self-produced hTGase 2 were incubated for 30 min at 20 °C in 100 mM MOPS pH 8.0, 100 mM NaCl, 5.33% (v/v) glycerol with CaCl2, DMSO or inhibitors 1–3 (2.12% DMSO), and GTPγS as indicated. After adding native loading buffer, 6 µL of each sample containing 3 µg of hTGase 2 was loaded onto the gel. After the electrophoretic separation, gels were stained with Coomassie Brilliant Blue G250, scanned, and the protein bands were quantified (Figure S6 in Supplementary Materials). […]
Sodium dodecyl sulfate-PAGE (SDS-PAGE) and native PAGE were performed on 4% stacking and 7% separating gels using Laemmli buffers (60 min with 120 V, 300 mA and 30 W at room temperature) and the same buffers without SDS (80 min with 120 V, 50 mA and 30 W at 4 °C), respectively. […] Afterward, the gels were scanned using a LI-COR Odyssey Fc Imager (700 channel) and analyzed using Image Studio software version 5.2.5. Detected bands were quantified based on the general procedure published by Wagstaff et al. and as detailed in legends to Figures S5 and S6. […]

Nc1nc2c(ncn2[C@@H]2O[C@H](COP(=O)(O)OP(=O)(O)OP(O)(O)=S)[C@@H](O)[C@H]2O)c(=O)[nH]1 [GTPγS]
effect on migrating hTGase 2 species: favors the fast migrating hTGase 2 species
